The values that follow come from patent US20190365730A1, “ANAESTHETIC COMPOSITION COMPRISING ROPIVACAINE, PRILOCAINE AND LIDOCAINE” (priority 2017, published 2019).

Structures are written as SMILES.

The subject of series [1] is intact skin of the lower arm. Put plainly: Pinprick test of anesthesis after topical application to intact skin of the lower arm. The series is classed as in vivo. The procedure: The pharmaceutical compositions were topically administered to intact skin of the arm and tested for anesthesis by pinpricks to a treated area of the skin. The sensation of pain was recorded for every puncture of the skin by the pin. […] The compositions were applied to intact skin of the lower arm in a circle area of a diameter of 1-2 cm. The amount of the composition applied to the skin was kept constant and left on the skin during the study. The treated area of intact skin was subjected to repeated pinpricks and the sensation of pain was recorded.

The conditions of series [2]: animal models, compared with bupivacaine; cited from earlier work.
For series [3] the following is noted: relative to lidocaine; cited from earlier work.
The conditions of series [4]: compared with prilocaine, lidocaine or ropivacaine; cited from earlier work.

With `CCCN1CCCC[C@H]1C(=O)Nc1c(C)cccc1C.Cl.O` [Ropivacaine, (S)-N-(2,6-dimethylphenyl)-1-propylpiperidine-2-carboxamide hydrochloride monohydrate], in series [1], the “duration of effect (effect lasted)” value was 3 h and the onset of anesthesis entry is reported as “approximately 1 hour”. The cardiotoxicity entry in series [2] was “less cardiotoxicity than bupivacaine”. Moreover, the “duration time of anesthesis compared to lidocaine” value in series [3] is on record as “about two”.
For `CCCCN1CCCCC1C(=O)Nc1c(C)cccc1C` (centres unmarked) [bupivacaine, 1-Butyl-N-(2,6-dimethylphenyl)-2-piperidinecarboxamide], the toxicity result in series [4] was “more toxic than prilocaine, lidocaine or ropivacaine”.
